Results published in patent US12409138B2, “Nanoparticles and nanogel drug compositions for treatment of age-related macular degeneration” (University of South Florida, priority 2019, dated 2025).

Key:
ARPE-19 cells [1] = experiment: Wound scratch assay (cell migration, with or without VEGF165); format: cell-based, human; conditions: 1 μM, 48 h
Protocol: Wound scratch assay. Wound healing assay was performed as per the earlier reports to analyse the inhibitory effect of SM and its formulation on VEGF165 (rhVEGF; R&D Systems) induced angiogenesis. ARPE-19 cells were seeded and allowed to grow to attain 80% confluency in 24-well plates. Carefully, wounds were made by pipette tip to take out monolayer of cells as a strip. The wounds were created typically with around 300 μm of the average size and […] variation in wound width was considered for the study. To ensure removal of partially adhered cells on the plates due to creation of the wound, they were washed with sterile PBS twice. The cell wells were then treated with at 1 μM and 10 μM concentrations of SM-NP gel formulations in DMEM F12 media without FBS. Cell migration was observed by using ZEISS inverted phase contrast microscope, (Axicom 506 mono) with Axicom MRCS-ZEN2pro software and quantified by calculating the area covered by the cells because of cell migration from the wound edges towards the center area of the wound using ImageJ software. To check the effect of presence of VEGF on the cell migration, two wells were also kept at above two concentrations and treated with VEGF simultaneously. […] The width of the wound was measured using images captured by microscope. […]

[2] = system: VEGF-A secretion in ARPE-19 cells; experiment: VEGF inhibition using ELISA; format: cell-based, human
Protocol: VEGF inhibition using ELISA. Human retinal pigmented epithelium ARPE-19 cells were seeded in 24 well plate at density of 5×10^4 cells/mL and allowed to grow for 24 h in DMEM F12 medium supplemented with 10% FBS and were incubated at 37° C., 5% CO2 atmosphere till wells became confluent. After 24 h, the culture media was replaced by incomplete media which is DMEM F12 without FBS and treatment with formulation was given. […] Quantification of the VEGF secretion in the culture media was done by ELISA method using Human VEGF-A Platinum ELISA Kit following manufacturer's instructions. The protein content in the cells were estimated using Pierce BCA protein assay kit after collecting cell lysate and the by normalizing VEGF secretion to total protein. Samples were read using ELISA plate reader (Spectra MAX 190, Molecular Devices, California, USA) at 450 nm absorbance and 550 nm and difference was recorded, followed by calculating inhibition of VEGF secretion using standard curve.

[3] = In vitro drug release study by dialysis; format: physicochemical
Protocol: In vitro drug release study. The in vitro drug release study for SM from nanoparticles and nanoparticles incorporated thermo-reversible gel were compared with plain drug solution and was studied at 37°±0.5° C. In short, drug solution in DMSO, SM-NPs and SM-NP Gel having equivalent quantity of SM (1 mg/ml) were placed in dialysis tubes (MWCO 10 KDa) and sealed tightly by using dialysis closures. Then, the dialysis tubes were immersed in 20 ml of PBS (pH 7.4) as a release medium comprising of 0.1% Tween 80 (v/v). Release medium was allowed to stir at 150 rpm and the 0.5 mL of samples were withdrawn at 0.25, 0.5, 1, 2, 4, 6, 12, 24, 48, 72, 96, 120, 144 and 168 h. The volumes were made up with fresh release medium after each sampling. The concentration of SM in a sample was determined by UV spectroscopy at 432 nm after dilution with methanol in ratio of 1:10. For all the formulations, in vitro release tests were carried out in triplicate and results were described as cumulative quantity of drug released at each point of time.

ARPE-19 cells [4] = experiment: Cytotoxicity study (MTT assay); format: cell-based, human; conditions: 20 μM
Protocol: Cell culture. ARPE-19, a human retinal pigment epithelial cell line ([…]) cells were grown and maintained in DMEM F12 medium supplemented with 10% v/v FBS and 1% 10,000 U/ml penicillin-streptomycin antibiotics. The cell cultures were allowed to incubate at 37° C. temperature, in a humidified atmosphere with 5% CO2. Cytotoxicity study. The MTT assay was carried out to determine cytotoxicity of SM-NPs as well as in SM-NPs gel in comparison with pure drug solution, in ARPE-19, human retinal pigment epithelial cells. The cells were seeded in 200 μl of DMEM F12 supplemented with 10% FBS in a 96 well plate (Corning, N.Y.) at a seeding density of 5000 cells/well and incubated for 24 h at 37° C., 5% CO2 atmosphere to allow attachment and growth of the cells. SM drug solution and formulations with various concentrations of SM were prepared by first dissolving SM in DMSO and then diluting them with DMEM F12 medium without FBS. The cells were treated with formulations after 24 h of seeding and incubated for […]. […] Intensity of color produced after dissolution of formazan crystals was quantified by measuring optical density at 595 nm wavelength by microtiter plate reader (Spectra MAX 190, Molecular Devices, California, USA). […] Cell viability were calculated graphically from concentration vs viability curves, considering the optical density of control well as 100% viable.

Release kinetics model [3]: first order drug release | Cumulative drug release at 1 hr ([3]; PBS pH 7.4, 0.1% Tween 80, 37° C.): 80%±2.5%
SMILES: CCN(CC)CCNC(=O)c1c(C)[nH]c(/C=C2\C(=O)Nc3ccc(F)cc32)c1C [SM solution, Sunitinib malate]
Wound recovery (ARPE-19 cells [1]): 80±1.8% | VEGF secretion ([2]; 12 hr, compared to the NPs treatment): noticeably reduced | VEGF expression levels ([2]; 48 h, 10 μM SM equivalent, control = 100%): 90% | activity at 10 µM ([2]; Homo sapiens, ARPE-19, 12 h, 10 μM SM equivalent, control = 100%, read-out: Inhibition of VEGF levels): 56 ± 3% | Viability lost (ARPE-19 cells [4]; 24 h): 25% | Viability lost (ARPE-19 cells [4]; 48 h): 30%
